This is an account of results in the METLIN SMRT retention time set (Domingo-Almenara et al. 2019).

This series can be described thus: gradient 5% acetonitrile 3 min, to 50% in 2 min, to 85% in 15 min, held 3 min, 100 µL/min. Conditions: column: Zorbax Extend-C18 2.1 x 50 mm; eluents: water / acetonitrile, 0.1% formic acid. A digest of the protocol: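 Retention times of pure standards were taken from adduct peaks that were selected by computer and manually inspected. Over 3 months, mixtures of ~100 molecules were run by HPLC–quadrupole time-of-flight mass spectrometry in positive and negative ionization mode. The Zorbax Extend-C18 column (2.1 × 50 mm, 1.8 μm) ran at 100 μL/min in water and acetonitrile, each containing 0.1% formic acid, with 40 μL dead volume and 900 μL dwell volume.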
Turning to `O=C(NC1CCCCCCC1)c1nnc(-c2ccc(S(=O)(=O)N3CCCCC3)cc2)o1`, the RP-LC retention time was 754 s.

The compound `O=C(Nc1ccccc1)N1CCN(Cc2nc(-c3ccccc3)cs2)CC1` came in with an RP-LC retention time of 612 s.

The compound `O=c1c(=O)n(-c2ccccc2)ccn1Cc1nc(-c2ccc(Br)cc2)no1` displayed an RP-LC retention time of 901 s.

`COc1ccc(-c2cc(C(=O)N3CCCC3c3cc(C)on3)no2)cc1` (centres undefined) returned an RP-LC retention time of 964 s.

In turn, `CC(C)CCSc1nnc2c(S(=O)(=O)N3CCN(c4ccc(F)cc4)CC3)cccn12` came in with an RP-LC retention time of 1060 s.

In turn, `CCN1CCCC1CNS(=O)(=O)c1ccccc1-c1nc(-c2ccc(C)cc2)no1` (centres undefined) returned an RP-LC retention time of 746 s.

`CCn1c(=O)c(NCCc2ccc(Cl)cc2)nc2ccncc21` registered an RP-LC retention time of 596 s.

With `O=C(NCc1ccc2c(c1)OCO2)C1Cn2cccc2C(=O)N1Cc1cccnc1` (centres undefined), the RP-LC retention time was found to be 594 s.

`CC(C)Oc1ccc(-c2noc(CN3C(=O)COc4cc(Cl)ccc43)n2)cc1`: the RP-LC retention time amounted to 1190 s.

For the compound `COc1ccc2nc(C(=O)N(C)Cc3ccccc3)cn2n1`, the RP-LC retention time is 790 s.

With `N#CCNC(=O)c1ccc(-c2ccnc(Nc3ccc(N4CCOCC4)cc3)n2)cc1`, the RP-LC retention time was determined as 719 s.

Turning to `O=C(NCc1cccnc1)C1CCc2sc(C(=O)N3CCOCC3)cc2C1` (centres undefined), the RP-LC retention time amounted to 526 s.

`COc1nn(C)cc1C(=O)NCC(=O)Nc1cccc2nsnc12` displayed an RP-LC retention time of 636 s.

Turning to `O=C1CCSc2c1cccc2C(=O)N1CCN(c2ccc(F)cc2)CC1`, the RP-LC retention time turned out to be 882 s.

Take `Cc1ccc(Nc2c(-c3ccc([N+](=O)[O-])cc3)nc3ccc(C)cn23)cc1`: the RP-LC retention time was 838 s.

For the compound `O=C(Cc1ccccc1Cl)N1CCN(c2cc(-c3cccs3)[nH]n2)CC1`, the RP-LC retention time amounted to 819 s.

`CCOc1ccc(NS(=O)(=O)c2c(C)sc(C)c2-c2n[nH]c(C)c2C)cc1` showed an RP-LC retention time of 1040 s.

The compound `Cc1cnc(Nc2ccc(OCCN3CCCC3)cc2)nc1Nc1cccc(S(=O)(=O)NC(C)(C)C)c1` registered an RP-LC retention time of 619 s.

The compound `O=C(Nc1ccc(-c2nc3ccccc3s2)cc1)c1cc(=O)c2ccccc2o1` yielded an RP-LC retention time of 1030 s.

For the compound `Cc1ccc(Nc2c(-c3cc(Br)ccc3F)nc3ccc(C)cn23)cc1`, the RP-LC retention time is 812 s.

`CCN1c2cc(F)ccc2C(=O)NC12CCN(C(=O)c1cc(OC)cc(OC)c1)CC2`: the RP-LC retention time came out at 813 s.

`COc1ccc(Nc2nc(N)nc(CSc3nnc4sc5ccccc5n34)n2)cc1` displayed an RP-LC retention time of 692 s.

With `CCOC(=O)c1nc(NCc2ccccc2Cl)c2c(CC)noc2n1`, the RP-LC retention time worked out at 1010 s.

The compound `CCCCOc1ccc(NC(=O)c2oc3cc(C)c(Cl)cc3c2C)c2cccnc12` gave an RP-LC retention time of 1030 s.

`Cc1cc(Cl)ccc1NC(=O)C1CCN(S(C)(=O)=O)c2ccccc2O1` (centres undefined) had an RP-LC retention time of 882 s.

Take `NS(=O)(=O)c1cccnc1Nc1cccc(Cl)c1`: the RP-LC retention time was 855 s.

`Cc1cc(C)cc(NS(=O)(=O)c2cc(-c3[nH]ncc3C(=O)N3CCCC3)oc2C)c1` registered an RP-LC retention time of 746 s.

On to `Cc1cnn(Cc2c(C(=O)N3C[C@@H](C(N)=O)[C@H](c4n[nH]c(C)n4)C3)noc2C)c1`, for which the RP-LC retention time worked out at 590 s.

In the case of `CCN(CC)C(=O)C1CCN(S(=O)(=O)c2ccc3c(c2)sc(=O)n3C(C)C)CC1`, the RP-LC retention time was found to be 873 s.

Take `COc1ccc(C2Cn3nc(-c4nc(C(C)(C)C)no4)cc3CO2)cc1` (centres undefined): the RP-LC retention time is 611 s.

`COc1cccc(N2CCN(C(=O)c3ccc4c(c3)NC(=O)C3CCCCN43)CC2)c1` (centres undefined) registered an RP-LC retention time of 592 s.

`Cc1ccc2cc(CCC(=O)NCCCN3CCOCC3)c(=O)[nH]c2c1` came in with an RP-LC retention time of 577 s.

On to `CCOc1ccccc1CNS(=O)(=O)c1ccc(-c2c(C)noc2C)cc1`, for which the RP-LC retention time was found to be 995 s.

Consider `O=C(CN1CCN(c2ccc(F)c(F)c2)C1=O)NC1CCSC1=O` (centres undefined), for which the RP-LC retention time was 678 s.

`Cc1cc(S(=O)(=O)N2CCC(n3cnnc3C)CC2)ccc1F` gave an RP-LC retention time of 702 s.

`COc1ccc(C)cc1S(=O)(=O)Nc1ccc(-c2cn3ccc(C)nc3n2)cc1` gave an RP-LC retention time of 661 s.

The compound `CC(=O)N1CCCc2ccc(NC(=O)COc3ccc(F)cc3)cc21` had an RP-LC retention time of 798 s.

Consider `CCOC(=O)CCNC(=O)N1CCc2c([nH]c3ccccc23)C1c1ccccc1F` (centres undefined), for which the RP-LC retention time came to 941 s.

With `Cc1csc(-c2ccc(N3CCN(C(=O)c4ccncc4)CC3)nc2)n1`, the RP-LC retention time stood at 632 s.

`COc1ccc(OC)c(NC(=O)Cn2nc3cc(-c4ccccc4)nc(C)n3c2=O)c1` registered an RP-LC retention time of 965 s.

`COc1ccc2c(=O)c(Oc3ccc(C(=O)Nc4cccnc4)cc3)coc2c1` came in with an RP-LC retention time of 605 s.

`O=C(CCn1c(=O)oc2ccccc21)Nc1ccc(S(=O)(=O)Nc2nccs2)cc1` registered an RP-LC retention time of 650 s.

For `COc1cccc(NC(=O)N2CC(C)Oc3ccc(C)cc32)c1` (centres undefined), the RP-LC retention time turned out to be 654 s.

The compound `O=C(c1cc2cc(Br)ccc2[nH]1)N1CCCC1` came in with an RP-LC retention time of 905 s.

The compound `CC(=O)N1CCCc2cc(S(=O)(=O)CCC(=O)N3CCN(c4cc(C)ccc4C)CC3)ccc21` registered an RP-LC retention time of 936 s.

For `O=C(Nc1cnn(-c2ncc(N3CCCCC3)cn2)c1)C1CCCC1`, the RP-LC retention time is 807 s.

In turn, `CCOc1ccc(NC(=O)Cn2c(=O)c(CCC(=O)NC3CCCC3)nc3ccccc32)cc1` had an RP-LC retention time of 860 s.

`CCOc1ccc(CCNC(=O)Cn2ncc3ccccc32)cc1OCC` registered an RP-LC retention time of 845 s.

As for `CCC(=O)Nc1ccc(C2(C(=O)N3CCN(c4ccccc4)CC3)CCC2)cc1`, the RP-LC retention time was 861 s.

In turn, `O=C(c1cn2c(n1)COCC2)N1CCN(c2ccc(Cl)cc2)CC1` yielded an RP-LC retention time of 699 s.

The compound `Cc1ccc(-c2nnc(-c3nn(C)c4c3CN(S(=O)(=O)c3cc(F)ccc3C)CC4)o2)cc1` registered an RP-LC retention time of 1050 s.

Regarding `COc1ccc(Cl)cc1NC(=O)N1C[C@@H](F)C[C@H]1C(=O)N1CCc2ccccc2C1`, the RP-LC retention time was 933 s.

In turn, `O=C(C1CCC1)N1CCC(c2nc(C3CCOCC3)no2)C1` (centres undefined) yielded an RP-LC retention time of 671 s.

For the compound `COCCn1cc(C(=O)Nc2ccccc2F)c2nn(-c3ccccc3)c(=O)c-2c1`, the RP-LC retention time was determined as 880 s.

Consider `CCC(=O)N1CCc2sc(C(=O)NCc3ccc(F)cc3)cc2C1`, for which the RP-LC retention time was determined as 750 s.

`CCc1ccc2c(C)nc(NC3=NC(C)(C)C=C(C)N3)nc2c1`: the RP-LC retention time stood at 636 s.

With `c1ccc(C2(c3ccccc3)CC2C2=NCCN2)cc1` (centres undefined), the RP-LC retention time was determined as 732 s.

Compound `O=C1CCCCC(Cc2ccccc2)(C(=O)NCc2ccc(Cl)cc2)N1` (centres undefined) returned an RP-LC retention time of 866 s.

`CCCCOc1ccc(-c2csc(Nc3ccccc3)n2)cc1` showed an RP-LC retention time of 1400 s.

Consider `Fc1ccc(OCc2nc(-c3ccc(-c4csc(C5CC5)n4)cc3)no2)cc1`, for which the RP-LC retention time is 1330 s.

`CCC(C(=O)Nc1ccc(-c2cn3ccc(C)nc3n2)cc1)c1ccccc1` (centres undefined) came in with an RP-LC retention time of 705 s.

`COC(=O)c1cc(S(=O)(=O)N2CCCC2C(=O)Nc2cccc(Br)c2)cn1C` (centres undefined) gave an RP-LC retention time of 963 s.

In turn, `COc1ccccc1-c1nnc(-c2ccc(Cl)c(S(=O)(=O)N3CCOCC3)c2)o1` came in with an RP-LC retention time of 897 s.

In turn, `O=C(CCC1CCN(c2cc(NC3CC3)ncn2)CC1)NCc1ccc(F)cc1` yielded an RP-LC retention time of 649 s.

In the case of `CC1CCc2c(N3CCC(O)CC3)c(F)cc3c(=O)c(C(=O)O)cn1c23` (centres undefined), the RP-LC retention time is 709 s.

Take `COc1cccc(N2N=NC3C(=O)N(c4ccccc4)C(=O)C32)c1` (centres undefined): the RP-LC retention time was found to be 922 s.

In turn, `O=C(c1ccc(-n2cccn2)nn1)N1CCN(C(=O)c2ccco2)CC1` displayed an RP-LC retention time of 611 s.

The compound `CCOC(=O)Cc1csc(NC(=O)C2CC(=O)N(c3n[nH]c4ccccc34)C2)n1` (centres undefined) showed an RP-LC retention time of 689 s.

Consider `Cc1ccc(C)c(N2CCN(C(=O)c3ccc(C)c(NC(=O)C4=CSCCO4)c3)CC2)c1`, for which the RP-LC retention time is 1070 s.

Consider `CCOc1ccc(-c2csc(Cc3nc(-c4ccccc4)no3)n2)cc1`, for which the RP-LC retention time was determined as 1230 s.

Regarding `Cc1ccc(NC(=O)COc2cccc3c(=O)n(C)ccc23)cc1`, the RP-LC retention time came out at 795 s.

Regarding `Cc1ccc(-c2ncc(C(=O)NCC3CCCCC3)c(-c3ccncc3)n2)cc1`, the RP-LC retention time was 992 s.

Regarding `CCOC(=O)c1c(S(=O)(=O)N2CCC(C(=O)N3CCc4ccccc43)CC2)c(C)n(C)c1C`, the RP-LC retention time was found to be 913 s.

In turn, `Cc1cc(NC(=O)C2CCc3nc(N4CCOCC4)ncc3C2)ccc1F` (centres undefined) returned an RP-LC retention time of 797 s.

As for `CCc1ccc(N2C(=O)CN(Cc3ccc(OC)cc3)[C@H]3CS(=O)(=O)C[C@H]32)cc1`, the RP-LC retention time came to 866 s.

Compound `Cc1ccc(Cn2nc3ccc(S(=O)(=O)N4CCC(C)CC4)cn3c2=O)cc1` yielded an RP-LC retention time of 1060 s.

In the case of `CCC1CCCCN1S(=O)(=O)c1cc(-c2cc(C)[nH]n2)sc1C` (centres undefined), the RP-LC retention time was 958 s.

Compound `CCOC(=O)c1ccc2nc(NC(=O)c3cccc([N+](=O)[O-])c3)sc2c1` registered an RP-LC retention time of 959 s.

`NC[C@@H]1O[C@H](C23CC4CC(CC(C4)C2)C3)Cc2c1ccc(O)c2O` gave an RP-LC retention time of 787 s.
